Data reported in PMC8948939 (Pharmaceutics, 2022).
Several values for one entry are separate records, joined by “and”; a condition that tells them apart may be missing. Equal entries are not always repeated. Where two headings read alike, the source gives them in different places.

Legend:
[1] = target: T1, CYP2C9 (Homo sapiens, UniProt P11712); assay: in vitro; conditions: microsomes, pH 7.5
Description: (§1) Supplementary Section S1. Marker reactions for CYP2C19, CYP2C9 and CYP3A4 […]
(§2) for CYP3A4 [1,2] were used to determine (i) intersystem extrapolation factors (ISEF), (ii) […]
(§3) (i) Experiments for the determination of Michaelis-Menten kinetics in HLM were performed at protein concentrations of 0.02, 0.04 and 0.05 mg/mL for the marker reactions of CYP2C19, CYP2C9 and CYP3A4 (n = 3 each), respectively. Two samples were taken from each incubation after 15 and 25 min for investigations on CYP2C19, after 5 and 10 min for CYP2C9 and after 7 and 12 min for CYP3A4, respectively. […]
(§4) were applied as substrate concentrations. […]

[2] = target: CYP2C9 in human liver microsomes (HLM) (Homo sapiens, UniProt P11712); assay: in vitro; conditions: pH 7.5
Description: as §1, §2, §3, §4

[3] = target: T1, CYP2C9; conditions: recombinant enzyme, pH 7.5
Description: as §1, §2, §3
were applied as substrate concentrations.
For investigations in rhCYP concentrations of 2.5 pmol/mL rhCYP2C19 (n = 3), […]
respectively. […]

[4] = system: human liver microsomes (HLM); assay: Metabolic stability of voriconazole N-oxide and hydroxyvoriconazole in HLM; format: in vitro ADME; conditions: HLM 0.2 mg/mL
Description: An incubation without HLM served as a control (n = 1).

[5] = system: CYP3A4; conditions: cited from earlier work
[6] = target: T2, CYP2C19 (Homo sapiens, UniProt P33261); assay: IC50 and IC50 shift on CYP2C19 marker reaction (S-mephenytoin 4-hydroxylation) in HLM; format: in vitro ADME; set-up: tissue Corning Inc; host or cells: pooled human liver microsomes (150 donors)
Description: (§5) Remaining activity (A, %) was calculated as the ratio of reaction velocities in the inhibited and non-inhibited incubations. IC50 and the steepness of the inhibition curve (H) were estimated by fitting the four-parameter inhibition model to the experimental data (Equation (9)). Maximum (Amax) and baseline activity (A0) were fixed to 100 and 0, respectively. […] (9) A,%=A0+Amax−A0/1+logCInhib/logIC50^H=100/1+logCInhib/logIC50^H […]
as §1, §2
(§6) Each probe substrate was incubated in the presence of each inhibitor. […]
(§7) were performed at concentrations of 0.2, 0.08 and 0.05 mg/mL HLM for CYP2C19, CYP2C9 and CYP3A4, respectively. IC50 and IC50 shift assays were performed at substrate […]
(§8) Reaction times were identical to those described

[7] = target: T1, CYP2C9; assay: IC50 and IC50 shift on CYP2C9 marker reaction (diclofenac 4-hydroxylation) in HLM; format: in vitro ADME; set-up: tissue Corning Inc; host or cells: pooled human liver microsomes (150 donors)
Description: as §5
Supplementary Section S1. […]
Two samples were taken
from each incubation after 15 and 25 min for investigations on CYP2C19, after 5 and
10 min for CYP2C9 and after 7 and 12 min for CYP3A4, respectively. […]
CYP2C9 and CYP3A4, respectively. IC50 and IC50 shift assays were performed at substrate
as §8

[8] = target: T3, CYP3A4 (Homo sapiens, UniProt P08684); assay: IC50 and IC50 shift on CYP3A4 marker reaction (midazolam 1-hydroxylation) in HLM; format: in vitro ADME; set-up: tissue Corning Inc; host or cells: pooled human liver microsomes (150 donors); conditions: for IC50 shift: human, human liver microsomes, pH 7.5, probe midazolam 1-hydroxylation (4.60 µM midazolam)
Description: as §5, §1, §2
Two samples were taken […]
from each incubation after 15 and 25 min for investigations on CYP2C19, after 5 and 10 min for CYP2C9 and after 7 and 12 min for CYP3A4, respectively. […]
CYP2C9 and CYP3A4, respectively. IC50 and IC50 shift assays were performed at substrate […]
as §8

[9] = target: T2, CYP2C19; assay: Type of reversible inhibition and Ki on CYP2C19 (S-mephenytoin 4-hydroxylation) in HLM; format: in vitro ADME; set-up: tissue Corning Inc; host or cells: pooled human liver microsomes (150 donors)
Description: (§9) Reaction velocities were investigated in function of the substrate ([S]) and inhibitor ([I]) concentration to determine KM, Vmax and Ki of the reaction. The obtained data were used to fit the three main models of reversible inhibition, i.e., competitive (Equation (10)), noncompetitive (Equation (11)) and uncompetitive (Equation (12)) using the “nls” function in R. The type of inhibition was determined according to the best model fit assessed with Akaike’s information criteria (AIC). […] (10) V=Vmax/1+KM/S1+I/Ki (11) V=Vmax/1+KM/S1+I/Ki (12) V=Vmax/1+KM/S+I/Ki […]
as §1, §2, §3, §4, §6, §7, §8

[10] = target: T1, CYP2C9; assay: Type of reversible inhibition and Ki on CYP2C9 (diclofenac 4-hydroxylation) in HLM; format: in vitro ADME; set-up: tissue Corning Inc; host or cells: pooled human liver microsomes (150 donors)
Description: as §9, §1, §2, §3, §4, §6, §7, §8

[11] = target: T3, CYP3A4; assay: Type of reversible inhibition and Ki on CYP3A4 (midazolam 1-hydroxylation) in HLM; format: in vitro ADME; set-up: tissue Corning Inc; host or cells: pooled human liver microsomes (150 donors)
Description: as §9, §1, §2, §3, §4, §6, §7, §8

[12] = target: T2, CYP2C19; set-up: tissue Corning Inc; host or cells: pooled human liver microsomes (150 donors); conditions: ref Hohmann et al. 42; cited from earlier work
[13] = target: T1, CYP2C9; set-up: tissue Corning Inc; host or cells: pooled human liver microsomes (150 donors); conditions: ref Giri et al. 84; cited from earlier work
[14] = 30 min pre-incubation in the absence of NADPH
[15] = 30 min pre-incubation in the absence of NADPH, read-out: IC50 NADPH (−) (95% Confidence Interval)
[16] = 30 min pre-incubation in the presence of NADPH
[17] = 30 min pre-incubation in the presence of NADPH, read-out: IC50 NADPH (+) (95% Confidence Interval)

T3 sequence (P08684 2-503 limits assumed): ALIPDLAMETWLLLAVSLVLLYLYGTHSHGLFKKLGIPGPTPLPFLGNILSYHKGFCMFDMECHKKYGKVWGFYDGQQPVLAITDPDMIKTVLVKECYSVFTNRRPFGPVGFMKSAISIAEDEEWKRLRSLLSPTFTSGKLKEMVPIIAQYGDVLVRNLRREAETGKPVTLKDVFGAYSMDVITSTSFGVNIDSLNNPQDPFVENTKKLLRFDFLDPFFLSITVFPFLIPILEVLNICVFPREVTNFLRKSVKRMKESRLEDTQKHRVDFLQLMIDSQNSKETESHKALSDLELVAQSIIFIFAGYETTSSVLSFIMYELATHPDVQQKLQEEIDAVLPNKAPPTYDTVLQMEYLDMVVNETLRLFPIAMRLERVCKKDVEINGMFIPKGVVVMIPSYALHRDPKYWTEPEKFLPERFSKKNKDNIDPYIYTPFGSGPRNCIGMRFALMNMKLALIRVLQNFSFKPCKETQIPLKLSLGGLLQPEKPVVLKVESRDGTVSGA
T1 sequence (P11712 whole entry): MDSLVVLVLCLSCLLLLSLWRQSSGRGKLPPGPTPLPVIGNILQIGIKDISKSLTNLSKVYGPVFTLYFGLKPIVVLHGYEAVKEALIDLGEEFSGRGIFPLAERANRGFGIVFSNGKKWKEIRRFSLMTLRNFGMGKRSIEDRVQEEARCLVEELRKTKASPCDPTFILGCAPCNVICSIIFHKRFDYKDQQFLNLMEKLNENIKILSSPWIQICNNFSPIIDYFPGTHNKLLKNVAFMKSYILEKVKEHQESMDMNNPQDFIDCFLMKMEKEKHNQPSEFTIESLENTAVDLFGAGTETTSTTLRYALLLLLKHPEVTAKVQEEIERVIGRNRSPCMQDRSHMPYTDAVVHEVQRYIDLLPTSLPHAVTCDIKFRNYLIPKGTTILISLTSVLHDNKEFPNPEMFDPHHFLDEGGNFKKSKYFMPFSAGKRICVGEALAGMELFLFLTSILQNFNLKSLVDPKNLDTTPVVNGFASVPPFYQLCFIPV
T2 sequence (P33261 whole entry): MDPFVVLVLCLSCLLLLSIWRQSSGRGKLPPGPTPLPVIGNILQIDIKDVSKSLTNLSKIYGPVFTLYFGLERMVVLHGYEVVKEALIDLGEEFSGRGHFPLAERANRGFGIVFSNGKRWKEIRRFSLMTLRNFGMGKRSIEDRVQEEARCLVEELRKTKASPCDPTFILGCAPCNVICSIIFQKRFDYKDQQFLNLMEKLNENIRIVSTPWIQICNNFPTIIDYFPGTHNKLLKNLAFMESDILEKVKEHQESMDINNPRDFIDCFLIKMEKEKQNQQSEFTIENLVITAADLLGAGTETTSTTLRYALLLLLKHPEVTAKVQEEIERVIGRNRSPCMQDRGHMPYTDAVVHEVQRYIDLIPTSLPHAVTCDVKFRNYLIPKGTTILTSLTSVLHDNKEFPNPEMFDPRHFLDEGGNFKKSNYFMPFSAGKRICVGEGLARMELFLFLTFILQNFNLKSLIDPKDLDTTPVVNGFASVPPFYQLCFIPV
Chain of CYP2C9 in human liver microsomes (HLM) (P11712 whole entry): as the sequence (P11712 whole entry) above

## O=C(O)Cc1ccccc1Nc1c(Cl)cccc1Cl [Diclofenac, diclofenac]
[1]
  microsomal CLint: 408 µL/min/mg
[2]
  Vmax,HLM (95% CI): 1693 pmol/min/mg
[3]
  CLint, rhCYP: 5.89 µL/min/pmol

## C[C@@H](c1nc[n+]([O-])cc1F)[C@](O)(Cn1cncn1)c1ccc(F)cc1F [NO, voriconazole N-oxide]
[4]; 5-60 min, 0.137 and 1.10 µM
  depletion over time when incubated directly with HLM: no depletion
[4]; high concentration (1.10 µM), single replicates
  % compared to a control incubation without HLM after 60 min: 96.9% and 109%
[5]; ref Giri et al. 84
  IC50: 8.7 µM
[5]; ref Hohmann et al. 42
  IC50: 146 µM
[6]; [14]
  IC50 Shift NADPH (−): 0.641
[6]; [15]
  IC50: > 34.2 µM
[6]; [16]
  IC50 Shift NADPH (+): 0.900
[6]; [17]
  IC50: > 34.2 µM
[6]; IC50 shift assay
  time dependence of inhibition: Time-independent inhibition
[6]; without pre-incubation, […] S-mephenytoin, HLM, NO and OH–VRC estimates exceed applied concentrations (max 34.2 µM), read-out: IC50 (95% Confidence Interval)
  IC50: > 34.2 µM
[7]; [15]
  IC50: 10.1 µM
[7]; [17]
  IC50: 14.9 µM
[7]; IC50 shift assay
  time dependence of inhibition: Time-independent inhibition
[7]; human, human liver microsomes, pH 7.5, probe diclofenac 4-hydroxylation (4.73 µM diclofenac), 30 min pre-incubation in the absence of NADPH
  IC50 shift: 1.34
[7]; human, human liver microsomes, pH 7.5, probe diclofenac (4-hydroxylation), 4.73 µM, 30 min pre-incubation in the presence of NADPH
  IC50 shift at 30 min: 0.899
[7]; without pre-incubation, 4.73 µM diclofenac, HLM, read-out: IC50 (95% Confidence Interval)
  IC50: 13.4 µM
[8]; [15]
  IC50: 6.96 µM
[8]; [16]
  IC50 Shift NADPH (+): 1.54
  IC50 shift: > 1.5
[8]; [17]
  IC50: 2.91 µM
[8]; IC50 shift assay
  time dependence of inhibition: Time-independent inhibition
[8]; [14]
  IC50 shift: 0.644
[8]; without pre-incubation, 4.60 µM midazolam, HLM, read-out: IC50 (95% Confidence Interval)
  IC50: 4.48 µM
[9]; CYP2C19, best model fit by AIC
  Type of Reversible Inhibition: noncompetitive
[9]; compared to VRC
  inhibitory effect on CYP2C19 relative to VRC (fold lower, from Ki): 31 fold
[9]; read-out: Ki (95% CI)
  Ki: 58.6 µM
[10]; CYP2C9, best model fit by AIC
  Type of Reversible Inhibition: competitive
[10]; compared to VRC
  inhibitory effect on CYP2C9 relative to VRC (fold, from Ki): 2.1 fold
[10]; read-out: Ki (95% CI)
  Ki: 5.47 µM
[11]; CYP3A4, best model fit by AIC
  Type of Reversible Inhibition: noncompetitive
[11]; CYP3A4, midazolam 1-hydroxylation, HLM, read-out: Ki (95% CI)
  Ki: 5.24 µM
[11]; compared to VRC
  inhibitory effect on CYP3A4 relative to VRC (fold, from Ki): 1.9 fold
[12]
  IC50: 40.2 µM
[13]
  IC50: 11.2 µM
